Measured values from ChEMBL document CHEMBL5046276 (J Med Chem, 2022).
Active and inactive are the calls of the source. The rule behind the calls is not given here.

Tests used:
Plasmodium berghei = assay: Antimalarial activity against liver stage transgenic Plasmodium berghei ANKA sporozoites transfected with GFP-Luc infected in BALB/c mouse assessed as delayed progression of infection at 30 mg/kg, iv measured for 1 to 4 days post-administration by IVIS spectrum in vivo imaging analysis; assay type: functional, organism-based; settings: time 1-4 day
Plasmodium falciparum [1] = assay: Antimalarial activity against asexual blood stage wild-type Plasmodium falciparum 3D7 assessed as parasite growth inhibition incubated for 72 hrs by SYBR Green I staining based fluorescence analysis; assay type: functional, organism-based; settings: 3D7, 72 h
[2] = Cytotoxicity against human HepG2 cells incubated for 72 hrs by CCK-8 assay
Plasmodium falciparum [3] = assay: In vivo inhibition of C-terminal TY1 fused HDAC1 in Plasmodium falcipuram 3D7 assessed as inhibition of parasite growth by measuring downregulation of RBC invasion-related genes expression level by RNA-seq analysis; assay type: functional, organism-based
Plasmodium falciparum [4] = assay: (§1) Antimalarial activity against ART-resistant Plasmodium falcipuram 6218 harbouring C580Y mutant infected in human RBC assessed as reduction in parasitemia in blood smear by measuring parasite survival ratio at ring stage at upto 700 nM incubated for 6 hrs followed by compound washout and replacement with fresh medium without compounds and measured after 66 hrs by ring stage survival assay; assay type: functional; settings: dose nM <=700, time 6.0 hrs
Histone deacetylase 3 [5] = target: T1, Histone deacetylase 3 (Homo sapiens, UniProt O15379); assay: Potency index, ratio of test compound IC50 to Quisinostat IC50 for inhibition of human C-terminal His tagged HDAC3 (1 to 428 residues) expressed in baculovirus-infected Sf9 cells using Ac-peptide as substrate incubated for 4 hrs
[6] = Metabolic stability in rat liver microsomes assessed as half life at […] incubated for 45 mins in presence of NADPH by LC/MS analysis; assay type: ADME, Microsome
Histone deacetylase 3 [7] = target: T1, Histone deacetylase 3; assay: Inhibition of human C-terminal His tagged HDAC3 (1 to 428 residues) expressed in baculovirus-infected Sf9 cells using Ac-peptide as substrate incubated for 4 hrs
Plasmodium falciparum [8] = assay: Antimalarial activity against asexual blood stage sulfadoxine-pyrimethamine/mefloquine-resistant Plasmodium falcipuram CP286 assessed as parasite growth inhibition incubated for 72 hrs by SYBR Green I staining based fluorescence analysis; assay type: functional, organism-based; settings: CP286, 72 h
[9] = target: T2, Histone deacetylase 8 (Homo sapiens) (UniProt Q9BY41); assay: Potency index, ratio of test compound IC50 to Quisinostat IC50 for inhibition of recombinant human full length C-terminal His-tagged HDAC8 expressed in baculovirus-infected Sf9 insect cells using Ac-peptide as substrate incubated for 4 hrs followed by trypsin addition and further incubated for 2 hrs
T2 sequence (whole entry): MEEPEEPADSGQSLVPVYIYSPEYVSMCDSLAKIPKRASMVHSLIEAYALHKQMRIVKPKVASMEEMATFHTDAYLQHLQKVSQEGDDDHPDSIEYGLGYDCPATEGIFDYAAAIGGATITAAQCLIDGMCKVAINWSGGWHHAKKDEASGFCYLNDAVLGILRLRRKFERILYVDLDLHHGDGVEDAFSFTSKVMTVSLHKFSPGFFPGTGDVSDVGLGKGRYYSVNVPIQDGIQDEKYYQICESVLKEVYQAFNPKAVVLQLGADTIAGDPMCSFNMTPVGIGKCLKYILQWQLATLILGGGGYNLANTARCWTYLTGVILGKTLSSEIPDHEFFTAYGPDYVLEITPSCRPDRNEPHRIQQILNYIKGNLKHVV

Plasmodium yoelii [10] = assay: Antimalarial activity against blood stage Plasmodium yoelii infected in BALB/c mouse assessed as parasite killing by measuring parasitemia at 30 to 90 mg/kg, ip qd for 5 days and measured on day 60; assay type: functional, organism-based; settings: dose 30-90 mg/kg, time 60.0 day
Plasmodium yoelii [11] = assay: Antimalarial activity against blood stage Plasmodium yoelii infected in BALB/c mouse assessed as parasite recrudescence by measuring parasitemia at 60 mg/kg, ip qd for 5 days and measured on 11 to 15 days; assay type: functional; settings: time 11-15 day
Plasmodium falciparum [12] = assay: Antimalarial activity against early stage (II) Plasmodium falciparum NF54 gametocytes transfected with p230p-Luc assessed as reduction in gametocyte viability incubated for 48 hrs by luciferase reporter gene based bioluminescence assay; assay type: functional, organism-based; settings: NF54, 48 h
[13] = Toxicity in BALB/c mouse infected with blood stage Plasmodium yoelii assessed as animal death at 60 mg/kg, ip qd for 5 days measured from day 2 post compound treatment; assay type: organism-based; settings: in vivo, 120 h, time 5 day
Plasmodium falciparum [14] = assay: Antimalarial activity against synchronized Plasmodium falcipuram 3D7 infected in human RBC assessed as fold reduction in reinvasion of ring stage parasites at 40 nM incubated for 12 hrs followed by compound washout and replacement with fresh medium without compounds and measured at 50 hrs post infection by flow cytometry; assay type: functional
Plasmodium falciparum [15] = assay: Antimalarial activity against synchronized Plasmodium falcipuram 3D7 infected in human RBC assessed as irreversible inhibition of parasite growth at schizont stage at 40 nM treated 29 to 41 hpi incubated for 12 hrs followed by compound washout and replacement with fresh medium without compounds and measured after 4 days by flow cytometry; assay type: functional, organism-based
Plasmodium yoelii [16] = assay: Antimalarial activity against blood stage Plasmodium yoelii infected in BALB/c mouse assessed as parasite recrudescence by measuring parasitemia at 60 mg/kg, ip qd for 5 days and measured on 12 to 18 days; assay type: functional; settings: time 12-18 day
[17] = In vivo inhibition of C-terminal TY1 fused HDAC1 in Plasmodium falcipuram 3D7 assessed as inhibition of parasite growth incubated for 4 hrs followed by compound washout and replacement with fresh medium with compounds measured after 68 hrs by SYBR Green I staining based fluorescence analysis; assay type: functional, organism-based, Plasmodium falciparum
[18] = target: T3, NAD-dependent protein deacetylase sirtuin-2 (Homo sapiens, UniProt Q8IXJ6); assay: Inhibition of human C-terminal His-tagged SIRT2 (50 to 356 residues) expressed in Escherichia coli using Ac-peptide as substrate incubated for 4 hrs followed by trypsin addition and further incubated for 2 hrs
T3 sequence (Q8IXJ6 whole entry): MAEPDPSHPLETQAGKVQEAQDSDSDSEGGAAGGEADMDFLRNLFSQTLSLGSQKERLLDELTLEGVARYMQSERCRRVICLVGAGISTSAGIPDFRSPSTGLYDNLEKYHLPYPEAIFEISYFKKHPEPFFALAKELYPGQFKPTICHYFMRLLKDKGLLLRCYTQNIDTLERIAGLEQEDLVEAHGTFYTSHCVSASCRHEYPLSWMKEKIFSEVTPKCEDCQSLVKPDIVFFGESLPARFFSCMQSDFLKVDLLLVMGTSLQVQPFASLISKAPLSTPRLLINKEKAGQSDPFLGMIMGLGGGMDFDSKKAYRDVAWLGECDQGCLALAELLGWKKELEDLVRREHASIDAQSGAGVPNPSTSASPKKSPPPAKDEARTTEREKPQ

Plasmodium falciparum [19] = assay: Inhibition of Plasmodium falcipuram HDAC assessed as effect on parasite histone deacetylation level at 5 to 20 nM incubated for 4 hrs by Western blot analysis; settings: dose 5-20 nM
[20] = Cmax in BALB/c mouse at 5 mg/kg, ip measured upto 24 hrs by LC-MS/MS analysis; assay type: ADME, organism-based; design: route intraperitoneal, dose 5 mg/kg, time <=24; settings: in vivo
[21] = Tmax in BALB/c mouse at 5 mg/kg, ip measured after upto 24 hrs by LC-MS/MS analysis; assay type: ADME, organism-based; settings: in vivo
Plasmodium falciparum [22] = assay: as §1, with “6320” for “6218”; assay type: functional; settings: dose nM <=700, time 6.0 hrs
[23] = Selectivity index, ratio of IC50 for cytotoxicity against human HepG2 cells to IC50 for antimalarial activity against asexual blood stage wild-type Plasmodium falciparum 3D7; assay type: toxicity, cell-based; settings: read-out: Ratio IC50

T1 sequence (O15379 whole entry, the tested form may be a part): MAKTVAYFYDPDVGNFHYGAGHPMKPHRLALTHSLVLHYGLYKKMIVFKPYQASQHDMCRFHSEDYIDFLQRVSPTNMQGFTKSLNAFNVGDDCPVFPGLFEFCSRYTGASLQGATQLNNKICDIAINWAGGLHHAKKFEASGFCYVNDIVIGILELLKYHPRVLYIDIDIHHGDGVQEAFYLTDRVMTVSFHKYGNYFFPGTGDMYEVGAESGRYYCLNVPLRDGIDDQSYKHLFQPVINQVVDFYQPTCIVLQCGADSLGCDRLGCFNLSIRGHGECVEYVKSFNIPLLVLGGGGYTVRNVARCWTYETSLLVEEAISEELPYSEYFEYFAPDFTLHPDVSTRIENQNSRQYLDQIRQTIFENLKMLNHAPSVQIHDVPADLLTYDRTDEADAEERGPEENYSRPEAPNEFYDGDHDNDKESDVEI

Compound: Cl.Cn1cc(CN2CC3(CCN(c4ncc(C(=O)NO)cn4)C3)C2)c2ccc(C#N)cc21
- Activity (Plasmodium berghei): Active
- IC50 (Plasmodium falciparum [1]): 1.26 nM
- IC50 at 72 h [2]: 1020 nM
- inhibition (Plasmodium falciparum [3]): Active
- Activity (Plasmodium falciparum [4]): Active
- Ratio IC50 (Histone deacetylase 3 [5]): 3
- half-life [6]: > 120 min
- IC50 (Histone deacetylase 3 [7]): 5.2 nM
- IC50 (Plasmodium falciparum [8]): 5.85 nM
- Ratio IC50 [9]: 3
- Activity (Plasmodium yoelii [10]): Active
- Activity (Plasmodium yoelii [11]): 0.01%
- IC50 (Plasmodium falciparum [12]): 15.4 nM
- Activity [13]: Non-Toxic
- fold change (FC) (Plasmodium falciparum [14]): 10
- Activity (Plasmodium falciparum [15]): Active
- Activity (Plasmodium yoelii [16]): 0.11%
- IC50 [17]: 82.5 nM
- IC50 [18]: > 10000 nM
- Activity (Plasmodium falciparum [19]): Active
- Cmax [20]: 539 ng/mL
- Tmax [21]: 15 min
- Activity (Plasmodium falciparum [22]): Active
- selectivity ratio [23]: 810
